# Target: T1, S6K1 (p70 S6K1, ribosomal protein S6 kinase 1) (Homo sapiens, UniProt P23443)
# T1 construct: gene RPS6KB1; recombinant active S6K1 (R&D systems 896-KS)
# Assay: in vitro kinase assay with recombinant S6K1 and GST-S6 (also H2B) substrate, […] ATP, immunoblot readout
# Assay type: biochemical
# T1 sequence (P23443 whole entry): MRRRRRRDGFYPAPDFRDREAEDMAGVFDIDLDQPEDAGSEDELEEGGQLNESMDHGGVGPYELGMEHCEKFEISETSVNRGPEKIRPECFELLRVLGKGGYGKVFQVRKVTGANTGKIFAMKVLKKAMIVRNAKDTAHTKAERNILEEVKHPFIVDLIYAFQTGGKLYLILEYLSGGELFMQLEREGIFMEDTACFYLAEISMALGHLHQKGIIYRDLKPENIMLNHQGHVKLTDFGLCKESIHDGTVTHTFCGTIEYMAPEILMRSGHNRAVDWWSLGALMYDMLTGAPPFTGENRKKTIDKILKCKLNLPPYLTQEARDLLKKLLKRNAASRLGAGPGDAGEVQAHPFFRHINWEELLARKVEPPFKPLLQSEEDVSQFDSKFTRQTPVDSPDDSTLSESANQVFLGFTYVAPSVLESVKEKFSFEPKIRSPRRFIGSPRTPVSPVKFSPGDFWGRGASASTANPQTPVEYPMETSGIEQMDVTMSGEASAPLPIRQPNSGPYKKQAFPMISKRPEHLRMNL
smiles,measurement,value
"COC(=O)[C@@H](Cc1ccc(O)c(O)c1)OC(=O)/C=C/c1ccc(O)c(O)c1 [RAME, rosmarinic acid methyl ester]","in vitro kinase assay with recombinant S6K1 and GST-S6 (also H2B) substrate, 100",RAME inhibited the phosphorylation of S6 in dose-dependent manner (Fig. 2b)

# — article PMC6683399, “Identification of a novel S6K1 inhibitor, rosmarinic acid methyl ester, for treating cisplatin-resistant cervical cancer” (BMC Cancer, 2019)
